Test results from ChEMBL document CHEMBL1139723, “Novel imidazole-based combretastatin A-4 analogues: evaluation of their in vitro antitumor activity and molecular modeling study of their binding to the colchicine site of tubulin” (Bioorg Med Chem Lett, 2006).

Tests used:
[1] = Cytotoxicity against NCI60 cell line; format: cell-based; settings: human
[2] = Cytotoxicity against MDR HCT15 cells; format: cell-based; settings: human, MDR HCT-15 cells
[3] = Cytotoxicity against NCI-H460 cells; format: cell-based; settings: human
[4] = Tumor growth inhibition of […] cells xenografted in immunodeficient mouse at 150 mg/kg/day after 25 days; format: functional; settings: Homo sapiens, 600 h
HL-60 = test: Tumor growth inhibition against HL60 cells; format: functional; settings: Homo sapiens, read-out: Log TGI (converted)
HCC 2998 = test: Tumor growth inhibition against HCC2998 cells; format: functional; settings: Homo sapiens, read-out: Log TGI (converted)

| Structure (SMILES) | Log TGI [1] | pGI50 [1] | GI50 [2] | GI50 [3] | inhibition in vivo at 150 mg/kg/day [4] | TGI (HL-60) | TGI (HCC 2998) |
| --- | --- | --- | --- | --- | --- | --- | --- |
| COc1ccc(-c2nccn2-c2ccc(OC)cc2)cc1 | -4.19 | 4.76 | 22900 nM | 17800 nM | – | – | – |
| COc1cc(-c2nccn2-c2ccc3ccccc3c2)cc(OC)c1OC | -4.8 | 6.86 | 22 nM | 21 nM | – | – | – |
| COc1ccc(-c2cncn2-c2cc(OC)c(OC)c(OC)c2)cc1 | -4.71 | 6.59 | 170 nM | 363 nM | 52% | – | – |
| COc1ccc(/C=C\c2cc(OC)c(OC)c(OC)c2)cc1O [COMBRETASTATIN A4] | -5.03 | 7 | < 10 nM | < 10 nM | – | – | – |
| COc1ccc(-c2cncn2-c2cc(OC)c(OC)c(OC)c2)cc1F | -4.51 | 7.4 | < 10 nM | < 10 nM | – | < 28.8 nM | – |
| COc1ccc(-c2cncn2-c2ccc(OC)cc2)cc1 | -4.32 | 4.8 | 19500 nM | 15500 nM | – | – | – |
| COc1cc(-n2ccnc2-c2ccc3ccccc3c2)cc(OC)c1OC | -4.68 | 6.82 | 51 nM | 37 nM | – | – | – |
| COc1ccc(-n2ccnc2-c2cc(OC)c(OC)c(OC)c2)cc1 | -4.32 | 5.45 | 1150 nM | 2340 nM | – | – | – |
| COc1ccc(-c2nccn2-c2cc(OC)c(OC)c(OC)c2)cc1 | -4.16 | 5.34 | 1150 nM | 1580 nM | – | – | – |
| COc1cc(-n2cncc2-c2ccc3ccccc3c2)cc(OC)c1OC | -4.4 | 7.14 | 17 nM | 18 nM | – | – | 29.5 nM |
